According to PMC11600510 (Journal of Chemical Information and Modeling, 2024):

Assays:
Vero E6 cells = assay: MTT toxicity assay in Vero E6 cells; assay type: cell-based; details: 48 h
Protocol: (§1) Chemical compounds were dissolved and serially diluted in DMSO. Their cytotoxicity was assessed using an MTT assay. Briefly, HEK293T, SH-SY5Y or Vero E6 cells were cultured in 96-well plates (4 × 10^4 cells/well) at 37 °C in a 5% CO2 atmosphere. Cells were treated for 48 h with varying concentrations of the compounds (100–0.1 μM) or solvent. […] Treated cells were incubated for 4 h with […] MTT (Applichem). After incubation, the MTT-containing medium was removed and formazan crystals were dissolved in DMSO. The optical density (OD) of formazan solution at 570 and 630 nm was measured in a SPARK plate reader (Tecan).

[1] = molecular target: T1, Spike RBD/ACE2 (19–615) interaction (Severe acute respiratory syndrome coronavirus 2, UniProt P0DTC2); assay: cell-based; assay type: cell-based, SARS-CoV-2
T1 construct: S protein RBD (aa residues 319–541) of SARS-CoV-2; expressed in transfected cells; host or cells: HEK293T

HEK293T cells = assay: MTT cytotoxicity assay in HEK293T cells; assay type: cell-based; details: 100 μM, 48 h
Protocol: as §1

| Structure (SMILES) | toxicity against Vero E6 cells (Vero E6 cells) | melting point | inhibition at 10 µM ([1]; HEK-293T, 48 h, read-out: suppression of Spike RBD/ACE2 (19–615) interaction) | cytotoxicity (HEK293T cells) | suppression of Spike/ACE2 interaction ([1]; 100 μM) |
| --- | --- | --- | --- | --- | --- |
| O=[N+]([O-])c1ccc(/C=C/C[n+]2cn(CCc3ccc4ccccc4c3)c3ccccc32)cc1.[Br-] [CKP-47, (E)-1-(2-(Naphthalen-2-yl)ethyl)-3-(3-(4-nitrophenyl)allyl)-1H-benzo[d]imidazol-3-ium Bromide] | toxic | 176 to 177 °C (dec.) | 34% | – | – |
| Cc1cc(O)c2c(c1)C(=O)c1cc(O)cc(O)c1C2=O [Emodin, reference compound] | – | – | – | non-cytotoxic | ~27% |
